Laboratory results: PubChem BioAssay (NCI)
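1) Cells in 96-well plates. 2) Compound, 48 h, 5 concentrations. 3) Linear interpolation between surrounding doses. 4) Unreached endpoint = highest concentration. GI50: concentration for 50% inhibition of growth. Definition used: TGI = concentration required for complete inhibition of growth.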

Key:
Assay in all cases: inhibition of tumour cell growth, NCI panel, 48 h
UACC-257 melanoma = test system: UACC-257 melanoma
TK-10 renal = test system: TK-10 renal
NCI/ADR-RES ovarian = test system: NCI/ADR-RES ovarian
NCI-H23 lung = test system: NCI-H23 lung
COLO 205 colon = test system: COLO 205 colon
DU-145 prostate = test system: DU-145 prostate
RPMI-8226 leukemia = test system: RPMI-8226 leukemia
SR leukemia = test system: SR leukemia
CCRF-CEM leukemia = test system: CCRF-CEM leukemia
K-562 leukemia = test system: K-562 leukemia

| SMILES | GI50 (UACC-257 melanoma) [µM] | TGI (UACC-257 melanoma) [µM] | GI50 (TK-10 renal) [µM] | TGI (TK-10 renal) [µM] | GI50 (NCI/ADR-RES ovarian) [µM] | TGI (NCI/ADR-RES ovarian) [µM] | GI50 (NCI-H23 lung) [µM] | TGI (NCI-H23 lung) [µM] | GI50 (COLO 205 colon) [µM] | TGI (COLO 205 colon) [µM] | GI50 (DU-145 prostate) [µM] | TGI (DU-145 prostate) [µM] | GI50 (RPMI-8226 leukemia) [µM] | TGI (RPMI-8226 leukemia) [µM] | GI50 (SR leukemia) [µM] | TGI (SR leukemia) [µM] | GI50 (CCRF-CEM leukemia) [µM] | TGI (CCRF-CEM leukemia) [µM] | GI50 (K-562 leukemia) [µM] | TGI (K-562 leukemia) [µM] |
| --- | --- | --- | --- | --- | --- | --- | --- | --- | --- | --- | --- | --- | --- | --- | --- | --- | --- | --- | --- | --- |
| COc1cc(/C=C/c2ccc3c(Br)cc(Br)c(O)c3n2)ccc1O | 7.61 | 22 | 3.84 | 15.5 | 0.327 | 1.49 | 1.99 | 16.4 | 5.01 | 17.2 | 2.41 | 17.6 | 1.21 | 8.07 | 0.476 | 3.41 | 0.359 | 3.03 | 0.441 | 10.5 |
| CC(CO)(Nc1ccc([N+](=O)[O-])cc1[N+](=O)[O-])C(=O)O (centres undefined) | – | 69.2 | – | > 100 | – | > 100 | – | 62.4 | – | 32.8 | – | 48.9 | – | > 100 | – | 24.8 | – | – | – | 38.6 |
| C=CCc1cc(Nc2c3ccc(Cl)cc3nc3ccc(OC)cc23)cc(CN(CC)CC)c1O | 2.21 | 9.27 | 1.97 | 11.1 | 2.88 | 10.8 | 0.559 | 9.91 | 1.39 | 3 | 1.96 | 14.2 | 0.348 | 2.38 | 0.362 | 3.47 | 0.8 | 4.26 | 0.615 | 4.11 |
| COc1ccc(Nc2ccnc(N3CCN(c4ccnc5cc(Cl)ccc45)CC3)n2)cc1 | 1.25 | 2.84 | 2.18 | 7.95 | 0.769 | 5.22 | 1.65 | 9.4 | 1.38 | 3.8 | 2.59 | > 30.5 | 1.04 | 3.88 | 0.601 | 6.88 | 1.74 | > 34.2 | 0.444 | > 20.8 |
| C[C@@H]1Cc2cc(O)ccc2[C@H]2CC[C@]3(C)/C(=C/COCCN(C)C)CC[C@H]3[C@H]12 (tested in a mixture with another compound) | 0.495 | 2.01 | 0.209 | 0.461 | 0.192 | 0.419 | 0.107 | 0.36 | 0.363 | 1.03 | 0.142 | 0.276 | 0.239 | 0.694 | 0.212 | 0.55 | 0.159 | 0.416 | 0.256 | 0.985 |
